According to ChEMBL document CHEMBL1126702, “Modeling the anticancer action of some retinoid compounds by making use of the OASIS method” (J Med Chem, 1993):

Columns and labels:
[1] = Partition coefficient (logP); type: physicochemical; settings: octanol/water
Cricetinae gen. sp. = assay: Tested for anticancer activity against hamster tracheal cells; type: functional, Trachea

logP ([1]; read-out: logP) | logP [1] | SMILES | -Log ED50 (Cricetinae gen. sp.)
6.63 |  | CC(=O)C1=C(/C=C/C(C)=C/C=C/C(C)=C/C=O)C(C)(C)CC1 | 9.3
7.34 |  | CCC(=O)/C=C(C)/C=C/C=C(C)/C=C/c1c(C)cc(O)c(C)c1C | 7
4.2 |  | CC(=O)/C=C(C)/C=C/C=C(C)/C=C/C1(O)C(C)(C)CCCC1(C)O (stereo not drawn) | 6.7
5.08 |  | CC(=O)/C=C(C)/C=C/C=C(C)/C=C/C12OC1(C)CCCC2(C)C (stereo not drawn) | 8.52
6.63 |  | CC1=C(/C=C/C(C)=C/C=C/C(C)=C/C=O)C(C)(C)CCC1=O | 9.15
6.57 |  | COc1cc(C)c(/C=C/C(C)=C/C=C/C(C)=C/C=O)c(C)c1C | 8.3
3.69 |  | CC(/C=C/C=C(C)/C=C/c1ccco1)=C\C=O | 6
7.22 |  | CCC(=O)/C=C(C)/C=C/C=C(C)/C=C/c1c(C)cc(OC)c(C)c1C | 7.7
6.58 |  | COC(C)C1=C(/C=C/C(C)=C/C=C/C(C)=C/C=O)C(C)(C)CC1 (stereo not drawn) | 9.7
5.37 |  | CC(/C=C/C=C(C)/C=C/c1ccccc1)=C\C=O | 6
4.69 |  | CC(/C=C/C=C(C)/C=C/c1cccnc1)=C\C=O | 6.52
7.29 |  | CC(/C=C/C=C(C)/C=C/C1C(C)CCCC1(C)C)=C\C=O (stereo not drawn) | <9
8.12 |  | CCC(=O)/C=C(C)/C=C/C=C(C)/C=C/C1=C(C)CCCC1(C)C | 9.3
7.63 |  | CC(=O)/C=C(C)/C=C/C=C(C)/C=C/C1=C(C)CCCC1(C)C | 9.52
6.1 |  | CC1=C(/C=C/C(C)=C/C=C/C(C)=C/C=O)C(C)(C)CCC1O (stereo not drawn) | 9.15
4.13 |  | CC(/C=C/C=C(C)/C=C/c1ccsc1)=C\C=O | >8
4.91 |  | CC(/C=C/C=C(C)/C=C/C12OC1(C)CCCC2(C)C)=C\C=O (stereo not drawn) | 8.7
 | 7.09 | CC1=CCCC(C)(C)C1/C=C/C(C)=C/C=C/C(C)=C/C=O (stereo in doubt; 16) | <8
7.47 |  | CC1=CCCC(C)(C)C1/C=C/C(C)=C/C=C/C(C)=C/C=O (stereo in doubt; 19) | 10.52
